Source: publication PMC6576746, “Rational discovery of dual-indication multi-target PDE/Kinase inhibitor for precision anti-cancer therapy using structural systems pharmacology” (PLoS Computational Biology, 2019)
pEC50, pIC50: −log10 of the molar value.

Legend:
Test in all cases: cells
Set-up in all cases: species or system panel of human cancer cell lines; Eurofins OncoPanel proliferation; nuclei count by high-content fluorescence imaging, 10-point dose response
[1] = tested on: T24; details: Homo sapiens, T-24, 72 h, cell count, 3 days
How it was run: (§1)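 Cells in RPMI 1640/10% FBS or special medium received compound the day after seeding, with a time-zero plate; 3-day incubation at 37°C, 5% CO2. Nuclei imaged by fluorescence microscopy; 10 half-log doses from 100 μM, 0.1% DMSO. EC50, IC50, GI50 and activity area (0–10) from curve fits.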

[2] = tested on: SW900; details: Homo sapiens, SW900, 72 h, cell count, 3 days
How it was run: as §1

[3] = tested on: DoTc2 4510; details: Homo sapiens, DoTc2-4510, 72 h, cell count, 3 days
How it was run: as §1

[4] = tested on: SW480; details: Homo sapiens, SW480, 72 h, cell count, 3 days
How it was run: as §1

[5] = tested on: EM-2; details: Homo sapiens, EM-2, 72 h, cell count, 3 days
How it was run: as §1

[6] = tested on: RKOE6; details: Homo sapiens, RKOE6, 72 h, cell count, 3 days
How it was run: as §1

[7] = tested on: NCI-H520; details: Homo sapiens, NCI-H520, 72 h, cell count, 3 days
How it was run: as §1

[8] = tested on: Ramos (RA 1); details: Homo sapiens, Ramos, 72 h, cell count, 3 days
How it was run: as §1

[9] = tested on: VA-ES-BJ; details: 72 h, cell count, 3 days
How it was run: as §1

[10] = tested on: KHOS-240S; details: KHOS-240S, 72 h, cell count, 3 days
How it was run: as §1

[11] = tested on: A375; details: Homo sapiens, A-375, 72 h, cell count, 3 days
How it was run: as §1

[12] = tested on: SUP-T1; details: Homo sapiens, SUP-T1, 72 h, cell count, 3 days
How it was run: as §1

[13] = tested on: TT; details: Homo sapiens, TT, 72 h, cell count, 3 days
How it was run: as §1

[14] = tested on: MX-1; details: Homo sapiens, MX1, 72 h, cell count, 3 days
How it was run: as §1

[15] = 50% of maximum possible response

C[C@@H]1CC(=O)NN=C1c1ccc(NN=C(C#N)C#N)cc1 [levosimendan]
pIC50 [1, 15]: 5.16
GI50 ([1]; corrected for time zero): 6.6 µM
pEC50 ([1]; curve inflection point): 5.20
pIC50 [2, 15]: 4.17
GI50 ([2]; corrected for time zero): 35.9 µM
pEC50 ([2]; curve inflection point): 4.17
pIC50 [3, 15]: 4.84
GI50 ([3]; corrected for time zero): 11.4 µM
pEC50 ([3]; curve inflection point): 4.97
pIC50 [4, 15]: 4.82
GI50 ([4]; corrected for time zero): 10.8 µM
pEC50 ([4]; curve inflection point): 4.88
pIC50 [5, 15]: 4.60
GI50 ([5]; corrected for time zero): 18.6 µM
pEC50 ([5]; curve inflection point): 4.65
pIC50 [6, 15]: 5.15
GI50 ([6]; corrected for time zero): 6.28 µM
pEC50 ([6]; curve inflection point): 5.16
pIC50 [7, 15]: < 4.00
GI50 ([7]; corrected for time zero): > 100 µM
pEC50 ([7]; curve inflection point): < 4.00
pIC50 [8, 15]: 4.62
GI50 ([8]; corrected for time zero): 21.2 µM
pEC50 ([8]; curve inflection point): 4.62
pIC50 [9, 15]: 4.29
GI50 ([9]; corrected for time zero): 42.4 µM
pEC50 ([9]; curve inflection point): 4.29
pIC50 [10, 15]: 4.77
GI50 ([10]; corrected for time zero): 13.5 µM
pEC50 ([10]; curve inflection point): 4.77
pIC50 [11, 15]: 5.02
GI50 ([11]; corrected for time zero): 9 µM
pEC50 ([11]; curve inflection point): 5.02
pIC50 [12, 15]: 4.81
GI50 ([12]; corrected for time zero): 11 µM
pEC50 ([12]; curve inflection point): 4.81
pIC50 [13, 15]: < 4.00
GI50 ([13]; corrected for time zero): 14.3 µM
pEC50 ([13]; curve inflection point): < 4.00
pIC50 [14, 15]: 4.39
GI50 ([14]; corrected for time zero): 37 µM
pEC50 ([14]; curve inflection point): 4.39
